Data from US11643438B2, “Antimicrobial peptides and methods of use” (priority 2018, dated 2023).
In brackets after ≈: the same amount, converted by molar mass. *1 amine or outer side, *2 acyl side, *3 side chain or, on linkers, in order; H or OH if unused. Where a SMILES comes first, the peptide text is derived from it. [ ]: non-standard residue; d: D form. X2 = CC[C@H](C)C[C@H](C)C[C@H](C)C[C@H](N[*:1])C(=O)[*:2]; X1 = CC[C@@H](C)[C@@H](O[*:1])C(=O)[*:2]; NMeVal(β-OH) = CN[C@H](C(=O)O)C(C)(C)O; aIle = CC[C@@H](C)[C@H](N)C(=O)O; NMeV = CN[C@H](C(=O)O)C(C)C; Sar = CNCC(=O)O

Legend:
[1] = tested on: Aspergillus fumigatus ATCC MYA-3627; assay: Effect of serum on antifungal activity (MIC80); assay type: cell-based
Protocol: (§1) Given that compound 1 contains a large number of hydrophobic amino acid residues that might promote non-specific protein binding resulting in a loss of in vivo activity, the efficacy of the compound was tested in the presence of blood serum against four fungal pathogens (C. albicans, C. auris, C. neoformans, and A. fumigatus) (Table 3).

[2] = tested on: Candida albicans SC5314; assay: Effect of serum on antifungal activity (MIC80); assay type: cell-based
Protocol: as §1

[3] = tested on: Candida auris 381; assay: Effect of serum on antifungal activity (MIC80); assay type: cell-based
Protocol: as §1

[4] = tested on: Cryptococcus neoformans H99; assay: Effect of serum on antifungal activity (MIC80); assay type: cell-based
Protocol: as §1

[5] = tested on: Candida albicans 3; assay: Antifungal MIC80 assay, clinical yeast isolates
[6] = tested on: Candida albicans 24; assay: Antifungal MIC80 assay, clinical yeast isolates
[7] = tested on: Candida glabrata 2; assay: Antifungal MIC80 assay, clinical yeast isolates
[8] = tested on: Candida glabrata 4; assay: Antifungal MIC80 assay, clinical yeast isolates
[9] = tested on: Candida glabrata 16; assay: Antifungal MIC80 assay, clinical yeast isolates
[10] = tested on: Candida parapsilosis 9; assay: Antifungal MIC80 assay, clinical yeast isolates
[11] = tested on: Candida parapsilosis 15; assay: Antifungal MIC80 assay, clinical yeast isolates
[12] = tested on: Candida parapsilosis 18; assay: Antifungal MIC80 assay, clinical yeast isolates
[13] = tested on: Candida parapsilosis 23; assay: Antifungal MIC80 assay, clinical yeast isolates
[14] = tested on: Candida kefyr 12; assay: Antifungal MIC80 assay, clinical yeast isolates
[15] = tested on: Candida krusei 25; assay: Antifungal MIC80 assay, clinical yeast isolates
[16] = tested on: Candida tropicalis 13; assay: Antifungal MIC80 assay, clinical yeast isolates
[17] = tested on: Candida auris 382; assay: Antifungal MIC80 assay, clinical yeast isolates
[18] = tested on: Candida auris 385; assay: Antifungal MIC80 assay, clinical yeast isolates
[19] = tested on: Candida auris 386; assay: Antifungal MIC80 assay, clinical yeast isolates
[20] = tested on: Candida auris 387; assay: Antifungal MIC80 assay, clinical yeast isolates
[21] = tested on: Candida auris 389; assay: Antifungal MIC80 assay, clinical yeast isolates
[22] = tested on: Candida duobushaemulonii 391; assay: Antifungal MIC80 assay, clinical yeast isolates
[23] = tested on: Candida haemulonii 393; assay: Antifungal MIC80 assay, clinical yeast isolates
[24] = tested on: Kodameae ohmeri 396; assay: Antifungal MIC80 assay, clinical yeast isolates
[25] = tested on: Candida albicans SC5314; assay: Antifungal MIC80/MFC assay, fungal pathogen panel
[26] = tested on: Candida tropicalis ATCC750 (Y-12699); assay: Antifungal MIC80/MFC assay, fungal pathogen panel
[27] = tested on: Cryptococcus neoformans H99; assay: Antifungal MIC80/MFC assay, fungal pathogen panel
[28] = tested on: Aspergillus fumigatus MYA 3627; assay: Antifungal MIC80/MFC assay, fungal pathogen panel; conditions: MYA3627
[29] = tested on: Aspergillus fumigatus NRRL5109; assay: Antifungal MIC80/MFC assay, fungal pathogen panel
[30] = tested on: Aspergillus niger FGSC A732; assay: Antifungal MIC80/MFC assay, fungal pathogen panel
[31] = tested on: Curvularia lunata NRRL6409; assay: Antifungal MIC80/MFC assay, fungal pathogen panel
[32] = tested on: Fusarium solani 243G2; assay: Antifungal MIC80/MFC assay, fungal pathogen panel
[33] = tested on: Paecilomyces lilacinus 165E10; assay: Antifungal MIC80/MFC assay, fungal pathogen panel
[34] = 0% serum (v/v) in growth medium
[35] = 5% serum (v/v) in growth medium
[36] = 10% serum (v/v) in growth medium
[37] = Candida tropicalis ATCC750 (Y-12699)
[38] = Purpureocillium lilacinum, 165E10

C[C@@H]1[C@H](O)[C@@H](C)/C=C/C=C/C=C/C=C/C=C/C=C/C=C/[C@H](O[C@@H]2O[C@H](C)[C@@H](O)[C@H](N)[C@@H]2O)C[C@@H]2O[C@](O)(C[C@@H](O)C[C@@H](O)[C@H](O)CC[C@@H](O)C[C@@H](O)CC(=O)O[C@H]1C)C[C@H](O)[C@H]2C(=O)O [AMB, amphotericin B]
MIC80 [1, 34]: 2.5 µM (≈ 2.31 µg/mL)
MIC80 [1, 35]: <0.07 µM
MIC80 [1, 36]: 0.15 µM (≈ 0.139 µg/mL)
MIC80 ([2]; Candida albicans SC5314, 0% serum (v/v) in growth medium): 0.6 µM (≈ 0.554 µg/mL)
MIC80 ([2]; Candida albicans SC5314, 5% serum (v/v) in growth medium): <0.15 µM
MIC80 ([2]; Candida albicans SC5314, 10% serum (v/v) in growth medium): <0.15 µM
MIC80 [3, 34]: 2.5 µM (≈ 2.31 µg/mL)
MIC80 [3, 35]: <0.15 µM
MIC80 [3, 36]: 0.3 µM (≈ 0.277 µg/mL)
MIC80 ([4]; Cryptococcus neoformans H99, 0% serum (v/v) in growth medium): 1.25 µM (≈ 1.16 µg/mL)
MIC80 ([4]; Cryptococcus neoformans H99, 5% serum (v/v) in growth medium): <0.15 µM
MIC80 ([4]; Cryptococcus neoformans H99, 10% serum (v/v) in growth medium): <0.15 µM
MIC80 [5]: 0.6 µM (≈ 0.554 µg/mL)
MIC80 [6]: 1.25 µM (≈ 1.16 µg/mL)
MIC80 ([7]; Candida glabrata 2): 0.3 µM (≈ 0.277 µg/mL)
MIC80 ([8]; Candida glabrata 4): 1.25 µM (≈ 1.16 µg/mL)
MIC80 ([9]; Candida glabrata 16): 0.15 µM (≈ 0.139 µg/mL)
MIC80 ([10]; Candida parapsilosis 9): 2.5 µM (≈ 2.31 µg/mL)
MIC80 ([11]; Candida parapsilosis 15): 2.5 µM (≈ 2.31 µg/mL)
MIC80 ([12]; Candida parapsilosis 18): 1.25 µM (≈ 1.16 µg/mL)
MIC80 ([13]; Candida parapsilosis 23): 1.25 µM (≈ 1.16 µg/mL)
MIC80 ([14]; Candida kefyr 12): 0.3 µM (≈ 0.277 µg/mL)
MIC80 ([15]; Candida krusei 25): 1.25 µM (≈ 1.16 µg/mL)
MIC80 [16]: 0.15 µM (≈ 0.139 µg/mL)
MIC80 ([17]; Candida auris 382, multidrug-resistant): 1.25 µM (≈ 1.16 µg/mL)
MIC80 ([18]; Candida auris 385, multidrug-resistant): 2.5 µM (≈ 2.31 µg/mL)
MIC80 ([19]; Candida auris 386, multidrug-resistant): 2.5 µM (≈ 2.31 µg/mL)
MIC80 ([20]; Candida auris 387, multidrug-resistant): 2.5 µM (≈ 2.31 µg/mL)
MIC80 ([21]; Candida auris 389, multidrug-resistant): 5 µM (≈ 4.62 µg/mL)
MIC80 ([22]; Candida duobushaemulonii 391, multidrug-resistant): 5 µM (≈ 4.62 µg/mL)
MIC80 ([23]; Candida haemulonii 393, multidrug-resistant): 5 µM (≈ 4.62 µg/mL)
MIC80 ([24]; Kodameae ohmeri 396, multidrug-resistant): 1.25 µM (≈ 1.16 µg/mL)
MFC [25]: 2.5 µM (≈ 2.31 µg/mL)
MIC80 [25]: 0.6 µM (≈ 0.554 µg/mL)
MFC [26, 37]: 2.5 µM (≈ 2.31 µg/mL)
MIC80 [26, 37]: 1.25 µM (≈ 1.16 µg/mL)
MFC [27]: 2.5 µM (≈ 2.31 µg/mL)
MIC80 [27]: 1.25 µM (≈ 1.16 µg/mL)
MFC [28]: 2.5 µM (≈ 2.31 µg/mL)
MIC80 [28]: 2.5 µM (≈ 2.31 µg/mL)
MFC [29]: 5 µM (≈ 4.62 µg/mL)
MIC80 [29]: 2.5 µM (≈ 2.31 µg/mL)
MFC ([30]; Aspergillus niger FGSC A732): 2.5 µM (≈ 2.31 µg/mL)
MIC80 ([30]; Aspergillus niger FGSC A732): 0.6 µM (≈ 0.554 µg/mL)
MFC [31]: 2.5 µM (≈ 2.31 µg/mL)
MIC80 [31]: 0.3 µM (≈ 0.277 µg/mL)
MFC [32]: 1.25 µM (≈ 1.16 µg/mL)
MIC80 [32]: 1.25 µM (≈ 1.16 µg/mL)
MFC ([33]; Paecilomyces lilacinus 165E10): >10 µM
MIC80 ([33]; Paecilomyces lilacinus 165E10): >10 µM

CC[C@H](C)C[C@H](C)C[C@H](C)C[C@@H]1NC(=O)[C@H](C(C)C)N(C)C(=O)[C@@H]([C@H](C)CC)OC(=O)[C@H](C(C)(C)O)N(C)C(=O)[C@H](CC(C)C)NC(=O)[C@H](C(C)C)N(C)C(=O)[C@H]([C@H](C)CC)NC(=O)[C@@H]2CCCN2C(=O)CN(C)C1=O [Compound 1, persephacin] (cyclo(L[NMeVal(β-OH)][X1][NMeV][X2][Sar]P[aIle][NMeV]))
MIC80 [1, 34]: 2.5 µM (≈ 2.69 µg/mL)
MIC80 [1, 35]: 2.5 µM (≈ 2.69 µg/mL)
MIC80 [1, 36]: 2.5 µM (≈ 2.69 µg/mL)
MIC80 ([2]; Candida albicans, SC5314, Candida albicans SC5314, 0% serum (v/v) in growth medium): 0.6 µM (≈ 0.645 µg/mL)
MIC80 ([2]; Candida albicans, SC5314, Candida albicans SC5314, 5% serum (v/v) in growth medium): 0.15 µM (≈ 0.161 µg/mL)
MIC80 ([2]; Candida albicans, SC5314, Candida albicans SC5314, 10% serum (v/v) in growth medium): 0.3 µM (≈ 0.323 µg/mL)
MIC80 [3, 35]: 1.25 µM (≈ 1.34 µg/mL)
MIC80 [3, 36]: 1.25 µM (≈ 1.34 µg/mL)
MIC80 ([3]; Candidozyma auris, 0% serum (v/v) in growth medium): 1.25 µM (≈ 1.34 µg/mL)
MIC80 ([4]; Cryptococcus neoformans, H99, Cryptococcus neoformans H99, 0% serum (v/v) in growth medium): 0.6 µM (≈ 0.645 µg/mL)
MIC80 ([4]; Cryptococcus neoformans, H99, Cryptococcus neoformans H99, 5% serum (v/v) in growth medium): < 0.15 µM
MIC80 ([4]; Cryptococcus neoformans, H99, Cryptococcus neoformans H99, 10% serum (v/v) in growth medium): < 0.15 µM
MIC80 [5]: 2.5 µM (≈ 2.69 µg/mL)
MIC80 [6]: 0.6 µM (≈ 0.645 µg/mL)
MIC80 ([7]; Nakaseomyces glabratus, 2): 0.15 µM (≈ 0.161 µg/mL)
MIC80 ([8]; Nakaseomyces glabratus, 4): 1.25 µM (≈ 1.34 µg/mL)
MIC80 ([9]; Nakaseomyces glabratus, 16): 0.3 µM (≈ 0.323 µg/mL)
MIC80 ([10]; Lodderomyces parapsilosis, 9): 2.5 µM (≈ 2.69 µg/mL)
MIC80 ([11]; Lodderomyces parapsilosis, 15): 2.5 µM (≈ 2.69 µg/mL)
MIC80 ([12]; Lodderomyces parapsilosis, 18): 1.25 µM (≈ 1.34 µg/mL)
MIC80 ([13]; Lodderomyces parapsilosis, 23): 2.5 µM (≈ 2.69 µg/mL)
MIC80 ([14]; Kluyveromyces marxianus, 12): 1.25 µM (≈ 1.34 µg/mL)
MIC80 ([15]; Pichia kudriavzevii, 25): 1.25 µM (≈ 1.34 µg/mL)
MIC80 [16]: 0.625 µM (≈ 0.672 µg/mL)
MIC80 ([17]; Candidozyma auris, 382): 2.5 µM (≈ 2.69 µg/mL)
MIC80 ([18]; Candidozyma auris, 385): 2.5 µM (≈ 2.69 µg/mL)
MIC80 ([19]; Candidozyma auris, 386): 2.5 µM (≈ 2.69 µg/mL)
MIC80 ([20]; Candidozyma auris, 387): 2.5 µM (≈ 2.69 µg/mL)
MIC80 ([21]; Candidozyma auris, 389): 2.5 µM (≈ 2.69 µg/mL)
MIC80 ([22]; Candidozyma duobushaemuli, 391): 2.5 µM (≈ 2.69 µg/mL)
MIC80 ([23]; Candidozyma haemuli, 393): 0.3 µM (≈ 0.323 µg/mL)
MIC80 [24]; 396: 2.5 µM (≈ 2.69 µg/mL)
MFC [25]: 1.25 µM (≈ 1.34 µg/mL)
MIC80 [25]: 0.3 µM (≈ 0.323 µg/mL)
MFC ([26]; Candida tropicalis, ATCC750): 2.5 µM (≈ 2.69 µg/mL)
MIC80 ([26]; Candida tropicalis, ATCC750): 1.25 µM (≈ 1.34 µg/mL)
MFC [27]: 2.5 µM (≈ 2.69 µg/mL)
MIC80 [27]: 0.6 µM (≈ 0.645 µg/mL)
MFC [28]: 5 µM (≈ 5.38 µg/mL)
MIC80 [28]: 2.5 µM (≈ 2.69 µg/mL)
MFC [29]: 5 µM (≈ 5.38 µg/mL)
MIC80 [29]: 2.5 µM (≈ 2.69 µg/mL)
MFC ([30]; Aspergillus niger, FGSCA732): > 10 µM
MIC80 ([30]; Aspergillus niger, FGSCA732): 1.25 µM (≈ 1.34 µg/mL)
MFC [31]: 0.6 µM (≈ 0.645 µg/mL)
MIC80 [31]: 0.3 µM (≈ 0.323 µg/mL)
MFC [32]: 2.5 µM (≈ 2.69 µg/mL)
MIC80 [32]: 1.25 µM (≈ 1.34 µg/mL)
MFC [33, 38]: > 10 µM
MIC80 [33, 38]: 2.5 µM (≈ 2.69 µg/mL)
